Experimental data as given in US20090208434A1, “3-(4-hydroxy-3-methoxyphenyl)-1-(4-hydroxyphenyl)-1-propanone and its use in cosmetic and pharmaceutical preparations” (SYMRISE GmbH & Co. KG, priority 2008, published 2009).

Tests used:
[1] = Sensitization and irritation test of the compound itself; conditions: test concentration of 50% by weight
Excerpt: The inventive compound of formula 1 with an anti-inflammatory effect can also be used as a component of inventive scent compositions (odorous substance compositions) and for example to give a perfumed finished product an anti-inflammatory effect. Since the proportion of perfume in a cosmetic finished product is often around 1% by weight, a scent containing the inventive compound of formula 1, will preferably include or be comprised approximately 1-50% by weight of the compound of formula 1.

[2] = Investigations of the chemical characteristics (stability); assay type: physicochemical
Excerpt: Furthermore, once the inventive compound of formula 1 had been incorporated into inventive cosmetic and pharmaceutical preparations no discoloration of this preparation was detected.

IL-1 = test: Inhibition of upregulation of inflammatory mediators: IL-1; conditions: according to the dose and even at low concentrations
Excerpt: (§1) It can therefore be used as an outstanding alternative or as an addition to other already well-known anti-inflammatory compounds (active substances) in cosmetic and pharmaceutical preparations or similar as an anti-inflammatory active substance.

IL-6 = test: Inhibition of upregulation of inflammatory mediators: IL-6; conditions: according to the dose and even at low concentrations
Excerpt: as §1

PGE-2 (prostaglandin E2) = test: Inhibition of upregulation of inflammatory mediators: PGE-2; conditions: according to the dose and even at low concentrations
Excerpt: as §1

[3] = test system: TNF-alpha (tumor necrosis factor alpha); test: Inhibition of upregulation of inflammatory mediators: TNF-alpha; conditions: according to the dose and even at low concentrations
Excerpt: as §1

photostability [2]: high photostability
temperature stability [2]: high temperature stability
stability in a broad pH range ([2]; broad pH range): high stability in a broad pH range
Structure (SMILES): COc1cc(CCC(=O)c2ccc(O)cc2)ccc1O [compound of formula 1, 3-(4-hydroxy-3-methoxyphenyl)-1-(4-hydroxyphenyl)-1-propanone]
irritation [1]: did not cause irritation
sensitization [1]: not sensitizing
upregulation of IL-1 caused by extrinsic and intrinsic factors (IL-1): inhibiting the upregulation
upregulation of IL-6 caused by extrinsic and intrinsic factors (IL-6): inhibiting the upregulation
upregulation of PGE-2 caused by extrinsic and intrinsic factors (PGE-2 (prostaglandin E2)): inhibiting the upregulation
upregulation of TNF-alpha caused by extrinsic and intrinsic factors [3]: inhibiting the upregulation
